# Results reported in the supplement of paper PMC10307832.
# Columns and labels:
# Assay in all cases: relative viability (nuclei count vs DMSO), 5 days (fraction); higher = more cells survive
# [1] = system: NCI-H322M
# How it was run: (§1)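 Cells from lung cancer lines were seeded into 1536-well plates and, one day later, dosed by pin tool. Treatments were either a single drug or a fixed dose of an anchor drug with five library-drug doses (not always all listed) in √10 steps. After 5 days, nuclei were stained in a one-step fixation (final 0.05% Triton X-100, 1% formaldehyde, 1 ug/ml Hoechst) and counted on 4× images, and relative viability is the treated-to-vehicle nuclei ratio, as the median of duplicate plates.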
# [2] = system: H3255
# How it was run: as §1
# [3] = system: NCI-H1666
# How it was run: as §1
# [4] = system: NCI-H358
# How it was run: as §1
# [5] = system: UMC-11
# How it was run: as §1
# [6] = system: LXF-289
# How it was run: as §1
# [7] = system: SK-MES-1
# How it was run: as §1
# [8] = system: HCC-15
# How it was run: as §1
# [9] = system: LCLC-97TM1
# How it was run: as §1
# [10] = system: ChaGo-K-1
# How it was run: as §1
# [11] = system: NCI-H661
# How it was run: as §1
# [12] = system: LC-2-ad
# How it was run: as §1
# [13] = system: NCI-H650
# How it was run: as §1
# [14] = system: LK-2
# How it was run: as §1
# [15] = system: NCI-H596
# How it was run: as §1
# [16] = system: NCI-H2087
# How it was run: as §1
# [17] = system: HCC-78
# How it was run: as §1
# [18] = system: NCI-H838
# How it was run: as §1
# [19] = system: NCI-H1944
# How it was run: as §1
# [20] = system: BEN
# How it was run: as §1
# [21] = system: PC-3 [JPC-3]
# How it was run: as §1
# [22] = system: NCI-H1651
# How it was run: as §1
# [23] = system: LU99A
# How it was run: as §1
smiles,measurement,setting,value
CC(C)Oc1cc(Nc2nc(N[C@@H](C)c3ccc(F)cn3)ncc2Cl)n[nH]1 [AZ23] + C[C@@H](Oc1cc(-c2cnn(C3CCNCC3)c2)cnc1N)c1c(Cl)ccc(F)c1Cl [Crizotinib] (partner 1 µM),relative viability,[1]; first compound 0.01 µM,1.08
same,relative viability,[1]; first compound 0.03162 µM,1.14
same,relative viability,[1]; first compound 0.3162 µM,0.939
same,relative viability,[2]; first compound 0.01 µM,0.981
same,relative viability,[2]; first compound 0.03162 µM,1.18
same,relative viability,[2]; first compound 0.3162 µM,1.01
same,relative viability,[3]; first compound 0.01 µM,1.03
same,relative viability,[3]; first compound 0.03162 µM,0.978
same,relative viability,[3]; first compound 0.3162 µM,1.02
same,relative viability,[4]; first compound 0.01 µM,0.522
same,relative viability,[4]; first compound 0.03162 µM,0.781
same,relative viability,[4]; first compound 0.3162 µM,0.654
same,relative viability,[5]; first compound 0.01 µM,0.552
same,relative viability,[5]; first compound 0.03162 µM,0.73
same,relative viability,[5]; first compound 0.3162 µM,0.555
same,relative viability,[6]; first compound 0.01 µM,0.862
same,relative viability,[6]; first compound 0.03162 µM,0.859
same,relative viability,[6]; first compound 0.3162 µM,0.79
same,relative viability,[7]; first compound 0.01 µM,1.02
same,relative viability,[7]; first compound 0.03162 µM,1.14
same,relative viability,[7]; first compound 0.3162 µM,0.938
same,relative viability,[8]; first compound 0.01 µM,1.1
same,relative viability,[8]; first compound 0.03162 µM,0.881
same,relative viability,[8]; first compound 0.3162 µM,0.884
same,relative viability,[9]; first compound 0.01 µM,0.424
same,relative viability,[9]; first compound 0.03162 µM,0.527
same,relative viability,[9]; first compound 0.3162 µM,0.305
same,relative viability,[10]; first compound 0.01 µM,1.37
same,relative viability,[10]; first compound 0.03162 µM,1.08
same,relative viability,[10]; first compound 0.3162 µM,1.24
same,relative viability,[11]; first compound 0.01 µM,1.1
same,relative viability,[11]; first compound 0.03162 µM,1.19
same,relative viability,[11]; first compound 0.3162 µM,1.11
same,relative viability,[12]; first compound 0.01 µM,0.471
same,relative viability,[12]; first compound 0.03162 µM,0.458
same,relative viability,[12]; first compound 0.3162 µM,0.436
same,relative viability,[13]; first compound 0.01 µM,0.866
same,relative viability,[13]; first compound 0.03162 µM,0.813
same,relative viability,[13]; first compound 0.3162 µM,0.847
same,relative viability,[14]; first compound 0.03162 µM,0.223
same,relative viability,[14]; first compound 0.3162 µM,0.216
same,relative viability,[15]; first compound 0.01 µM,0.97
same,relative viability,[15]; first compound 0.03162 µM,1.05
same,relative viability,[15]; first compound 0.3162 µM,0.896
same,relative viability,[16]; first compound 0.01 µM,1.16
same,relative viability,[16]; first compound 0.03162 µM,1.11
same,relative viability,[16]; first compound 0.3162 µM,1.04
same,relative viability,[17]; first compound 0.01 µM,0.318
same,relative viability,[17]; first compound 0.03162 µM,0.39
same,relative viability,[17]; first compound 0.3162 µM,0.336
same,relative viability,[18]; first compound 0.01 µM,0.702
same,relative viability,[18]; first compound 0.03162 µM,0.889
same,relative viability,[18]; first compound 0.3162 µM,0.803
same,relative viability,[19]; first compound 0.01 µM,1.11
same,relative viability,[19]; first compound 0.03162 µM,1.18
same,relative viability,[19]; first compound 0.3162 µM,1.17
same,relative viability,[20]; first compound 0.01 µM,0.855
same,relative viability,[20]; first compound 0.03162 µM,1.09
same,relative viability,[20]; first compound 0.3162 µM,0.968
same,relative viability,[21]; first compound 0.01 µM,1.3
same,relative viability,[21]; first compound 0.03162 µM,1.07
same,relative viability,[21]; first compound 0.3162 µM,0.91
same,relative viability,[22]; first compound 0.01 µM,0.94
same,relative viability,[22]; first compound 0.03162 µM,0.97
same,relative viability,[22]; first compound 0.3162 µM,0.875
same,relative viability,[23]; first compound 0.01 µM,0.617
same,relative viability,[23]; first compound 0.03162 µM,0.563
same,relative viability,[23]; first compound 0.3162 µM,0.6
